Measurements reported in patent US9006209B2, “Uracyl spirooxetane nucleoside phosphoramidates” (Janssen Products, LP, priority 2010, dated 2015).

Experiments:
HIV = details: described in Org. Biomol. Chem., 2003, 3514-3526; cited from earlier work
[1] = test system: HCV replicon (HCV type 1b NS3-NS5B) in Huh-7 luc/neo cells; assay: HCV replicon assay (Huh-Luc, luciferase readout); format: cell-based, HCV genotype 1b; details: Hepatitis C virus, Huh-7, 72 h, three days incubation, luciferase activity
Description: (§1) The in vitro antiviral activity against HCV of the compound of formula I was tested in a cellular HCV replicon system based on Lohmann et al. (1999) Science 285:110-113, with the further modifications described by Krieger et al. (2001) Journal of Virology 75: 4614-4624 (incorporated herein by reference), which is further exemplified in the examples section. This model, while not a complete infection model for HCV, is widely accepted as the most robust and efficient model of autonomous HCV RNA replication currently available. It will be appreciated that it is important to distinguish between compounds that specifically interfere with HCV functions from those that exert cytotoxic or cytostatic effects in the HCV replicon model, and as a consequence cause a decrease in HCV RNA or linked reporter enzyme concentration. […]
The replicon cells were plated in 384-well plates in the presence of the test and control compounds which were added in various concentrations. Following an incubation of three days, HCV replication was measured by assaying luciferase activity (using standard luciferase assay substrates and reagents and a Perkin Elmer ViewLux™ ultraHTS microplate imager). […] The inhibitory activity of the compound on luciferase activity was monitored on the Huh-Luc cells, enabling a dose-response curve for the test compound. […]

[2] = Cytotoxicity in Huh-7 cells; format: cell-based; details: human
Description: as §1, with “concentration. Assays are known in the field for the evaluation of cellular cytotoxicity based for example on the activity of mitochondrial enzymes using fluorogenic redox dyes such as resazurin. Furthermore, cellular counter screens exist for the evaluation of non-selective inhibition of linked reporter gene activity, such as firefly luciferase.” for “concentration.”

| Compound | activity against HIV (HIV) | EC50 [1] | CC50 [2] |
| --- | --- | --- | --- |
| O=c1ccn([C@@H]2O[C@H](CO)[C@@H](O)[C@]23CCO3)c(=O)[nH]1 [1-(2-O,2-C-ethano-β-D-ribofuranosyl)uracil] | no activity was found |  |  |
| Cc1cn([C@@H]2O[C@H](CO)[C@@H](O)[C@]23CCO3)c(=O)[nH]c1=O [1-(2-O,2-C-ethano-β-D-ribofuranosyl)thymine] | no activity was found |  |  |
| CCCCOC(=O)[C@H](C)N[P@@](=O)(OC[C@H]1O[C@@H](n2ccc(=O)[nH]c2=O)[C@@]2(CCO2)[C@@H]1O)Oc1ccccc1 [P1, butyl N-[(R)-{[(4R,5R,7R,8R)-5-(2,4-dioxo-3,4-dihydro-pyrimidin-1(2H)-yl)-8-hydroxy-1,6-dioxaspiro[3.4]oct-7-yl]methoxy}(phenoxy)-phosphoryl]-L-alaninate] |  | 4.47 µM | > 98 µM |
